The nature of data set [1]: Single dose study: intravenous cocaine, detection in oral fluid and urine by STC assay and GC/MS. Type of data set: in vivo, human. Here is the method:
A total of 10 volunteers received 10 or 25 mg of intravenous cocaine in a controlled environment. Oral fluid and urine specimens were collected over 0-130 hours after dose. Oral fluid specimens (400 µL) were added to the collection pad and diluted into the EPISCREEN™ Control Matrix. Samples were then tested using the STC assay and GC/MS. The results were platted over time for each patient. The oral fluid and urine results were compared using similar points on the curve. For all volunteers, regardless of the dose, the cocaine concentrations in oral fluid were detectable 5 minutes after dosing. For the subject who received 10 mg, oral fluid cocaine levels were no longer detectable after 25 minutes. For the remaining nine subjects who received 25 mg intravenous cocaine, drug levels in oral fluids were detectable after dosing for up to 3-6 hours. The length of time detectable drug concentrations were present in urine varied greatly. […] This variability could be attributed to a number of factors, including the volume of urine collected and the sensitivity of the cutoff used. In general, however, positive results were obtained in the subjects for up to 58 hours after dosing.

The conditions of data set [2]: cited from earlier work.
The conditions of data set [3]: cited from earlier work. The source holds these as a separate data set.

Counter-ions that a name gives are not always drawn. Like-named read-outs stand apart in the source and are kept apart here.

Results on three compounds are retold here after US7544468B2, “Simultaneous collection of DNA and non-nucleic analytes” (Orasure Technologies, Inc., priority 1997, dated 2009).

In the case of `COC(=O)[C@H]1[C@@H](OC(=O)c2ccccc2)C[C@@H]2CC[C@H]1N2C` [Cocaine, benzyolmethylecgonine], in data set [1] (all volunteers, 10 or 25 mg intravenous), the “time after dosing at which cocaine concentrations in oral fluid were detectable” value is 5 min. In data set [1] (nine subjects, 25 mg intravenous), the “time drug levels in oral fluids were detectable after dosing” value was 3 to 6 h. For the same compound, in data set [1] (subject who received 10 mg intravenous), the “time after which oral fluid cocaine levels were no longer detectable” value came to 25 min.
Take `CN[C@@H](C)Cc1ccccc1` [Methamphetamine, methylamphetamine hydrochloride]: the “found unchanged in urine” value in data set [2] (acid urine) is reported as “up to 76%”; in data set [2] (alkaline urine) it was 2%. In data set [2] (normal conditions), the “excreted in the urine unchanged” value was “up to 43%”. The “time detected in oral fluid” value in data set [2] (oral fluid, depends on dose and rate of saliva flow) is at most 50 h. Besides, the “time detection in urine is successful following use” value in data set [2] (urine) was 24 to 48 h.
For `CCCCCc1cc(O)c2c(c1)OC(C)(C)[C@@H]1CCC(C)=C[C@@H]21` [THC, Tetrahydrocannabinol], in data set [3] (saliva, after use, depends on pH and rate of saliva flow), the persistence in saliva was at most 14 h. Also, the persistence in urine entry in data set [3] (urine, depending upon the frequency of use) is “up to 30 days”.
